These results are taken from patent publication US11555212B2, “Process for the production of sulfated phenolic compounds using modified Escerichia coli” (CysBio ApS, priority 2016, dated 2023).

The target in the experiment is T1, SULT1A1 rat (Rattus norvegicus, UniProt P17988).
T1 construct: expressed in transfected cells; host or cells: Saccharomyces cerevisiae CEN.PK102-5B (plasmids pCBJ283, pCBJ284)
Kind of experiment: Titers of zosteric acid in Saccharomyces cerevisiae expressing a sulfotransferase. The format is cell-based. To be noted: S. cerevisiae CEN.PK102-5B, modified Delft medium, 10 mM p-coumaric acid, overnight 30° C. How it is done:
The concentration of p-courmaric acid (pHCA) and zosteric acid in the supernatant was quantified by high performance liquid chromatography (HPLC) and compared to chemical standards. HPLC was done on a Thermo setup using a HS-F5 column and mobile phases: 5 mM ammonium formate pH 4.0 (A) and acetonitrile (B) at 1.5 mL min-1, using a gradient elution starting at 5% B. From 0.5 min after injection to 7 min, the fraction of B increased linearly from 5% to 60%, and between 9.5 min and 9.6 the fraction of B decreased back to 5%, and remaining there until 12 min. pHCA and zosteric acid were quantified by measuring absorbance at 277 nm.
The gene encoding aryl sulfotransferase SULT1A (Example 1) was cloned after a TEF1 promoter into an episomal plasmid with a 2-micron origin of replication as follows. The gene was amplified by PCR using primers CBJP633 and CBJP634. Alternatively, the gene was codon-optimized for E. coli and synthesized by GeneArt and amplified by primers CBJP635 and CBJP636. The TEF1 promoter (Jensen et al., 2014, FEMS Yeast Res 14: 238-248) was amplified by PCR using the primers PTEF1_fw and PTEF1_rv. Plasmid pCfB132 (Jensen et al., supra) was digested by restriction enzymes AsiSI and Nt.Bsml. […]

T1 sequence (P17988 whole entry): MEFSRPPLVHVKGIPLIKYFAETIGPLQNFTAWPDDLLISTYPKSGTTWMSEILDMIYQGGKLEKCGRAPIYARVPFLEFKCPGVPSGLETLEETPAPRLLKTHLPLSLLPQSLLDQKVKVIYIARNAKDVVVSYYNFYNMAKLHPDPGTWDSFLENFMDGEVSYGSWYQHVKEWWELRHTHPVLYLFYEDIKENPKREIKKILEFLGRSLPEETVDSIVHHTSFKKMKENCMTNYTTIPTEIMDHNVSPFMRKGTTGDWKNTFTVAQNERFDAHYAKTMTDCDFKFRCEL

For the compound `O=C(O)/C=C/c1ccc(OS(=O)(=O)O)cc1` [Zosteric acid, zosteric acid], the “μM ZA (averages and standard deviations of replicate experiments)” value is, setting by setting: (SULT1A1 rat (codon optimized for E. coli)) 46.2 ± 3.5 µM; (SULT1A1 rat (native)) 37.8 ± 5.7 µM.
